Results as given in US6838414B2, “Substituted aryl sulphonyl(thio)ureas used as herbicides” (Bayer Aktiengesellschaft, priority 1996, dated 2005).

Columns and labels:
Format in all cases: in vivo
[1] = system: weeds; test: Pre-emergence test (overall statement); details: application rates between 30 g and 125 g of a.i. per hectare
Procedure: (§1) To produce a suitable preparation of active compound, 1 part by weight of active compound is mixed with the stated amount of solvent, the stated amount of emulsifier is added and the concentrate is diluted with water to the desired concentration.
(§2) Seeds of the test plants are sown in normal soil. After about 24 hours, the soil is sprayed with the preparation of the active compound. Advantageously, the amount of water per unit area is kept constant. The active compound concentration in the preparation is not important, only the active compound application rate per unit area is critical.
(§3) After three weeks, the degree of damage to the plants is rated in % damage in comparison with the development of the untreated control.
(§4) The figures denote: • 0%=no effect (like untreated control) • 100%=total destruction

[2] = system: weeds; test: Post-emergence test/greenhouse
Procedure: as §1
(§5) Test plants which have a height of 5-15 cm are sprayed with the preparation of the active compound in such a way as to apply the particular amounts of active compound desired per unit area. The concentration of the spray liquor is chosen so that the amounts of active compound desired in each case are applied in 1000 l of water/ha.
as §3, §4

[3] = system: Alopecurus; test: Post-emergence test/greenhouse; details: rated after three weeks vs untreated control
Procedure: as §1, §5, §3, §4

[4] = system: Abutilon; test: Post-emergence test/greenhouse; details: rated after three weeks vs untreated control
Procedure: as §1, §5, §3, §4

[5] = system: Echinochloa; test: Post-emergence test/greenhouse; details: rated after three weeks vs untreated control
Procedure: as §1, §5, §3, §4

[6] = system: Matricaria; test: Post-emergence test/greenhouse; details: rated after three weeks vs untreated control
Procedure: as §1, §5, §3, §4

[7] = system: Sorghum; test: Pre-emergence test/greenhouse; details: after three weeks
Procedure: as §1, §2, §3, §4

[8] = system: Amaranthus; test: Pre-emergence test/greenhouse; details: after three weeks
Procedure: as §1, §2, §3, §4

[9] = system: Chenopodium; test: Pre-emergence test/greenhouse; details: after three weeks
Procedure: as §1, §2, §3, §4

[10] = system: Stellaria; test: Pre-emergence test/greenhouse; details: after three weeks
Procedure: as §1, §2, §3, §4

[11] = system: Alopecurus; test: Pre-emergence test/greenhouse; details: after three weeks
Procedure: as §1, §2, §3, §4

[12] = system: Lolium; test: Pre-emergence test/greenhouse; details: after three weeks
Procedure: as §1, §2, §3, §4

[13] = application rate 30 g of ai./ha
[14] = application rate 60 g of ai./ha
[15] = application rate 125 g of ai./ha

Row | Structure (SMILES) | activity against weeds [1] | activity against weeds [2] | degree of damage to the plants, Alopecurus [3, 13] [%] | degree of damage to the plants, Abutilon [4, 13] [%] | degree of damage to the plants, Echinochloa [5, 13] [%] | degree of damage to the plants, Matricaria [6, 13] [%] | Sorghum, % damage ([7]; 60 g of ai./ha) [%] | Amaranthus, % damage ([8]; 60 g of ai./ha) [%] | Chenopodium, % damage ([9]; 60 g of ai./ha) [%] | Steltaria, % damage ([10]; 60 g of ai./ha) [%] | Alopecurus, % damage ([11]; 60 g of ai./ha) [%] | Lolium, % damage ([12]; 60 g of ai./ha) [%] | Sorghum, % damage ([7]; 30 g of ai./ha) [%] | Chenopodium, % damage ([9]; 30 g of ai./ha) [%] | Steltaria, % damage ([10]; 30 g of ai./ha) [%] | Alopecurus, % damage ([11]; 30 g of ai./ha) [%] | also measured
1 | CCOc1cccc(C(F)(F)F)c1S(=O)(=O)NC(=O)Nc1nc(C)nc(OC)n1 [Example 4] | very strong activity against weeds | very strong activity against weeds | 90 | 100 | 90 | 100 | 100 | 100 | 100 | 95 | 100 | 100 | – | – | – | – | –
2 | COc1nc(C)nc(NC(=O)NS(=O)(=O)c2c(OC)cccc2C(F)(F)F)n1 [Example 5] | very strong activity against weeds | very strong activity against weeds | 80 | 100 | 100 | 100 | 100 | 100 | 100 | 100 | 100 | 100 | – | – | – | – | –
3 | COc1nc(NC(=O)NS(=O)(=O)c2c(OC)cccc2C(F)(F)F)nc(OC)n1 [Example 6] | very strong activity against weeds | very strong activity against weeds | 60 | 90 | 100 | 100 | 100 | 100 | 100 | 100 | 100 | 100 | – | – | – | – | –
4 | CCOc1cccc(C(F)(F)F)c1S(=O)(=O)NC(=O)Nc1nc(C)cc(C)n1 [Example 8] | very strong activity against weeds | very strong activity against weeds | 80 | 90 | 90 | 100 | – | – | – | – | – | – | 100 | 80 | 90 | 100 | Lolium, % damage ([12]; 30 g of ai./ha): 100%
5 | CCCOc1cccc(C(F)(F)F)c1S(=O)(=O)NC(=O)Nc1nc(OC)nc(OC)n1 [Example 10] | very strong activity against weeds | – | – | – | – | – | 100 | 100 | 100 | 100 | 100 | 100 | – | – | – | – | –
6 | CCCOc1cccc(C(F)(F)F)c1S(=O)(=O)NC(=O)Nc1nc(C)cc(C)n1 [Example 11] | very strong activity against weeds | – | – | – | – | – | 100 | 100 | 100 | 95 | 100 | 100 | – | – | – | – | –
7 | COc1nc(NC(=O)NS(=O)(=O)c2c(OC(C)C)cccc2C(F)(F)F)nc(OC)n1 [Example 13] | very strong activity against weeds | – | – | – | – | – | 100 | 100 | 100 | 100 | 100 | 100 | – | – | – | – | –
8 | Cc1cc(C)nc(NC(=O)NS(=O)(=O)c2c(OC(C)C)cccc2C(F)(F)F)n1 [Example 14] | very strong activity against weeds | – | – | – | – | – | – | – | – | – | – | – | 95 | 95 | 95 | 100 | Lolium, % damage ([12]; 30 g of ai./ha): 100%
9 | CCOc1cccc(C(F)(F)F)c1S(=O)(=O)NC(=O)Nc1nc(Cl)cc(OC)n1 [Example 16] | very strong activity against weeds | very strong activity against weeds | 70 | 100 | 70 | 100 | – | – | – | – | – | – | 80 | 100 | 90 | 100 | –
10 | CCCOc1cccc(C(F)(F)F)c1S(=O)(=O)NC(=O)Nc1nc(Cl)cc(OC)n1 [Example 17] | – | very strong activity against weeds | – | 90 | 70 | 95 | – | – | – | – | – | – | – | – | – | – | –
11 | COc1cc(OC)nc(NC(=O)NS(=O)(=O)c2c(OC)cccc2C(F)(F)F)n1 [Example 22] | very strong activity against weeds | very strong activity against weeds | 60 | 95 | 80 | 95 | – | – | – | – | – | – | 95 | 100 | 100 | 100 | Amaranthus, % damage ([8]; 30 g of ai./ha): 100%
12 | CCOc1cccc(C(F)(F)F)c1S(=O)(=O)NC(=O)Nc1nc(OC)cc(OC)n1 [Example 23] | – | very strong activity against weeds | 60 | 95 | 70 | 95 | – | – | – | – | – | – | – | – | – | – | –
13 | CCCOc1cccc(C(F)(F)F)c1S(=O)(=O)NC(=O)Nc1nc(OC)cc(OC)n1 [Example 24] | – | very strong activity against weeds | 60 | 95 | 70 | 95 | – | – | – | – | – | – | – | – | – | – | –
14 | COc1cc(OC)nc(NC(=O)NS(=O)(=O)c2c(OC(C)C)cccc2C(F)(F)F)n1 [Example 25] | – | very strong activity against weeds | 60 | 95 | 70 | 90 | – | – | – | – | – | – | – | – | – | – | –
15 | COc1cc(C)nc(NC(=O)NS(=O)(=O)c2c(C)cccc2OC(C)C)n1 [Example 33] | very strong activity against weeds | – | – | – | – | – | – | – | – | – | – | – | 100 | 70 | 90 | 100 | Lolium, % damage ([12]; 30 g of ai./ha): 95%
16 | C#CCOc1cccc(C)c1S(=O)(=O)NC(=O)Nc1nc(OC)cc(OC)n1 [Example 34] | very strong activity against weeds | very strong activity against weeds | 60 | 90 | 80 | 90 | – | – | – | – | – | – | 90 | 90 | 90 | 100 | –
17 | CCCOc1cccc(C)c1S(=O)(=O)NC(=O)Nc1nc(C)cc(OC)n1 [Example 46] | very strong activity against weeds | – | – | – | – | – | 100 | 90 | 100 | 80 | 100 | 90 | – | – | – | – | –
18 | CCOc1cccc(C(C)C)c1S(=O)(=O)NC(=O)Nc1nc(OC)nc(OC)n1 [Example 51] | – | very strong activity against weeds | – | – | – | – | – | – | – | – | – | – | – | – | – | – | degree of damage to the plants, Alopecurus [3, 14]: 80%; degree of damage to the plants, Abutilon [4, 14]: 100%; degree of damage to the plants, Echinochloa [5, 14]: 90%; degree of damage to the plants, Matricaria [6, 14]: 90%
19 | COc1nc(C)nc(NC(=O)NS(=O)(=O)c2c(C)cccc2OC2CCCC2)n1 [Example 56] | very strong activity against weeds | – | – | – | – | – | 90 | 100 | 100 | 100 | 100 | 100 | – | – | – | – | –
20 | COc1cc(OC)nc(NC(=O)NS(=O)(=O)c2c(C)cccc2OC(F)F)n1 [Example 65] | very strong activity against weeds | very strong activity against weeds | – | – | – | – | – | – | – | – | – | – | – | – | – | – | degree of damage to the plants, Alopecurus [3, 15]: 90%; degree of damage to the plants, Abutilon [4, 15]: 100%; degree of damage to the plants, Echinochloa [5, 15]: 90%; degree of damage to the plants, Matricaria [6, 15]: 100%; Amaranthus, % damage ([8]; 125 g of ai./ha): 95%; Chenopodium, % damage ([9]; 125 g of ai./ha): 95%; Steltaria, % damage ([10]; 125 g of ai./ha): 95%; Alopecurus, % damage ([11]; 125 g of ai./ha): 95%; Lolium, % damage ([12]; 125 g of ai./ha): 70%
